Data from US5621133A (priority 1995, dated 1997).
pEC50, pKi: −log10 of the molar value. Counter-ions that a name gives are not always drawn.

Assays:
[1] = target: dopamine D-1 receptor (Rattus norvegicus, UniProt P18901); assay: biochemical; settings: D-1 Ki, rat caudate, [125I]SCH-23982
From the text: The compounds compete with the radiolabeled ligand for occupancy of the receptors and the molar potency of each compound was quantified.
The Ki values are inversely proportional to the affinity of the compound for the receptor.

[2] = tested on: striatal dopamine receptors; assay: Rotation behavior assay of in vivo activity (6-hydroxydopamine lesioned rat rotational model); settings: for ED50 s.c. (rotation behavior): injected subcutaneously
[3] = tested on: dopamine D-1 receptor; settings: for Intrinsic Activity (adenylate cyclase assay): dopamine = 100, goldfish retina or rat striatum; for pEC50: read-out: EC50 (agonist activity in adenylate cyclase assay), tissue from goldfish retina or rat striatum
Method: In order to determine agonist activity, cell-free tissue homogenates are incubated in an ionic buffer solution containing ATP and the compound being evaluated. The tissue was obtained from either goldfish retina or rat striatum.

[4] = target: dopamine D-2 receptor (Rattus norvegicus, UniProt P61169); assay: biochemical; format: binding; settings: rat caudate, [125I]-p-aminophenylethyl spiroperidol; read-out: D-2 Ki
dopamine D-2 receptor, sequence (P61169 whole entry): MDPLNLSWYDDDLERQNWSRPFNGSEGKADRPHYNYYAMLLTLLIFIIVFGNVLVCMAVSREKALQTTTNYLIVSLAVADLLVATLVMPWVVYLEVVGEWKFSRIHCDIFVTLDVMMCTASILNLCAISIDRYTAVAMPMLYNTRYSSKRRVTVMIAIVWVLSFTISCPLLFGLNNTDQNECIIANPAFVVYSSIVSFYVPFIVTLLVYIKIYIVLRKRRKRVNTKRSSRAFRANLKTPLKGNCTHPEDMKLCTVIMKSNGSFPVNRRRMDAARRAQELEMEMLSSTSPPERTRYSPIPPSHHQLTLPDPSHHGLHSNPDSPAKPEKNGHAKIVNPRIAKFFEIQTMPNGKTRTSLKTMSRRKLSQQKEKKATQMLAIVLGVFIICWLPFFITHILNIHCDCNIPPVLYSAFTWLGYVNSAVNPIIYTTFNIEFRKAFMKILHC
Method: Homogenized rat caudate was the source of the D-2 receptors. […] The molar affinity of the compound for the receptor binding site was calculated by the same method used for the D-1 receptor assay, assuming a competitive interaction between the compound and the radiolabeled ligand.

dopamine D-1 receptor (Rattus norvegicus, UniProt P18901), sequence (P18901 whole entry): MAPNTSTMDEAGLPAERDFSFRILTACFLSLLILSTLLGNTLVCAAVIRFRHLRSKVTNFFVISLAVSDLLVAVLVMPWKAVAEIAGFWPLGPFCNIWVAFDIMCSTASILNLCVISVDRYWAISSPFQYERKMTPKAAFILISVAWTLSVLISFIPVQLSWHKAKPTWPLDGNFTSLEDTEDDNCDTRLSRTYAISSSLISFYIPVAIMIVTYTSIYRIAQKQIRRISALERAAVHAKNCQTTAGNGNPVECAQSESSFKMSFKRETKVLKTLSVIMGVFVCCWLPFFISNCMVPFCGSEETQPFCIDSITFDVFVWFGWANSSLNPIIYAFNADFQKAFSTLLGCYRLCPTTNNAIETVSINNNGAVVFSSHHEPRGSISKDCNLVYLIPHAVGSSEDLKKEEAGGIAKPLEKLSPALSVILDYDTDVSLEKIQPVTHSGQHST

| Compound | pKi [1] | ED50 s.c. (rotation behavior) [2] | Intrinsic Activity (adenylate cyclase assay) [3] | pEC50 [3] | pKi [4] | mean rotations over 360 minutes ([2]; dose = 143 micromoles/kg p.o.) | mean rotations over 20 hours ([2]; dose = 143 micromoles/kg p.o.) |
| --- | --- | --- | --- | --- | --- | --- | --- |
| CC[C@H]1Cc2c(ccc(O)c2O)[C@@H](CN)O1 (relative stereo) [Example 51] | 6.63 | 7 µmol/kg | 88 | 6.74 | 5.41 |  |  |
| CC(=O)Oc1ccc2c(c1OC(C)=O)CC(c1ccccc1)C=C2CNC(=O)[C@H](C)NC(=O)[C@H](C)N (stereo partly drawn) [Example 4, 5,6-Bis(acetoxy)-1-(alanyl-alanyl)aminomethyl-3-phenyl-3,4-dihydronaphthalene Hydrochloride] |  |  |  |  |  | 3329 |  |
| CC(=O)Oc1ccc2c(c1OC(C)=O)CC(c1ccccc1)C=C2CNC(=O)OC(C)OC(C)=O (stereo not drawn) [Example 6] |  |  |  |  |  |  | 2564 |
| CC(=O)Oc1ccc2c(c1OC(C)=O)CC(c1ccccc1)C=C2CNC(=O)[C@H](C)N (stereo partly drawn) [Example 10] |  |  |  |  |  | 1516 |  |
| CSCC[C@H](N)C(=O)NCC1=CC(c2ccccc2)Cc2c1ccc(OC(C)=O)c2OC(C)=O (stereo partly drawn) [Example 14] |  |  |  |  |  | 3653 |  |
| C[C@H](N)C(=O)N[C@@H](C)C(=O)NCC1=CC(c2ccccc2)Cc2c1ccc(OC(=O)c1ccccc1)c2OC(=O)c1ccccc1 (stereo partly drawn) [Example 15] |  |  |  |  |  | 1760 |  |
| Cl.NCC1=CC(c2ccccc2)Cc2c1ccc(OC(=O)c1ccccc1)c2OC(=O)c1ccccc1 (stereo not drawn) [Example 16, 1-Aminomethyl-5,6-bis(benzoyloxy)-3-phenyl-3,4-dihydronaphthalene Hydrochloride] |  |  |  |  |  | 4844 |  |
| Oc1ccc2c(c1O)C[C@@H](c1ccccc1)O[C@H]2[C@H]1CCCN1 [Example 123] | 5.09 |  | 61 | 6.11 | < 5.00 |  |  |
| Oc1ccc2c(c1O)C[C@H](c1ccccc1)O[C@@H]2[C@H]1CCCN1 [Example 127] | 5.89 |  | 55 | 6.28 | < 5.00 |  |  |
| CCNC[C@@H]1O[C@H](C(C)(C)C)Cc2c1ccc(O)c2O [Example 128] | 6.24 |  | 108 | 7.06 | 4.64 |  |  |
| C=CCNC[C@@H]1O[C@H](C(C)(C)C)Cc2c1ccc(O)c2O [Example 129] | 5.68 |  | 97 | 6.00 | 5.51 |  |  |
| CNC[C@@H]1O[C@H](C23CC4CC(CC(C4)C2)C3)Cc2c1ccc(O)c2O [Example 134] | 7.46 |  | 81 | 8.40 | 6.00 |  |  |
| CNCC1OC2(CCCCCC2)Cc2c1ccc(O)c2O (stereo not drawn) [Example 141] | 6.92 |  | 97 | 7.10 | 5.59 |  |  |
| CNCC1OC2(CCCCCCC2)Cc2c1ccc(O)c2O (stereo not drawn) [Example 142] | 6.72 |  | 71 | 7.06 | < 5.00 |  |  |
| CNCC1OC2(CCOCC2)Cc2c1ccc(O)c2O (stereo not drawn) [Example 143] | 5.92 |  | 94 | 5.96 | < 5.00 |  |  |
| CNCC1=CC(c2ccccc2)Cc2c1ccc(O)c2O (stereo not drawn) [Example 149, 5,6-Dihydroxy-1-(N-methyl)aminomethyl-3-phenyl-3,4,-dihydronaphthalene] | 6.34 |  | 78 | 7.44 | 4.72 |  |  |
| O=CO.Oc1ccc2c(c1O)CC(c1ccccc1)C1=C2CNC1 (stereo not drawn) [Example 184, 6,7-Dihydroxy-4-phenyl-2,3,4,5-tetrahydro-1H-benz[e]isoindole Formic Acid Salt] | 7.15 |  | 47 | 7.66 | < 5.00 |  |  |
| NCC1=CC2(CCCCC2)Cc2c1ccc(O)c2O [Example 189] | 5.48 |  | 65 | 5.82 | < 5.00 |  |  |
| CC(C)(C)C1C=C(CN)c2ccc(O)c(O)c2C1 (stereo not drawn) [Example 190] | 6.48 |  | 92 | 6.96 | 5.20 |  |  |
| NCC1=CC2(CCCCCCC2)Cc2c1ccc(O)c2O [Example 191] | 5.96 |  | 58 | 5.82 | < 5.00 |  |  |

| Compound | pKi [1] | ED50 s.c. (rotation behavior) [2] | Intrinsic Activity (adenylate cyclase assay) [3] | pEC50 [3] | pKi [4] | mean rotations over 360 minutes ([2]; dose = 143 micromoles/kg p.o.) | mean rotations over 20 hours ([2]; dose = 143 micromoles/kg p.o.) |
| --- | --- | --- | --- | --- | --- | --- | --- |
| NCC1CC2(CCCCCC2)Cc2c1ccc(O)c2O (stereo not drawn) [Example 193] | 6.19 |  | 63 | 6.17 | 5.49 |  |  |
| NCC1CC2(CCCCC2)Cc2c1ccc(O)c2O (stereo not drawn) [Example 194] | 5.40 |  | 82 | 7.24 | < 5.00 |  |  |
| NCC1CC2(CCCC2)Cc2c1ccc(O)c2O (stereo not drawn) [Example 196] | 5.22 |  | 80 | 5.96 | < 5.00 |  |  |
| NCC1CC2(CCCCCCC2)Cc2c1ccc(O)c2O (stereo not drawn) [Example 197] | 6.06 |  | 56 | 6.74 | < 5.30 |  |  |
| CC(C)(C)C1Cc2c(ccc(O)c2O)C2=C1CCNC2 (stereo not drawn) [Example 203] | 6.00 |  | 0 | < 5.00 | 5.37 |  |  |
| Oc1ccc2c(c1O)CC1(CCCCCC1)C1=C2CNCC1 [Example 206] | 7.59 |  | 79 | 7.17 | 5.80 |  |  |
| Oc1ccc2c(c1O)CC(CC1CCCC1)C1=C2CNCC1 (stereo not drawn) [Example 209] | 6.31 |  | 25 |  | 5.55 |  |  |
| CN1CCC2=C(C1)c1ccc(O)c(O)c1CC21CCCC1 [Example 211] | 6.24 |  | 38 | 7.20 | < 5.00 |  |  |
| CN1CCC2=C(C1)c1ccc(O)c(O)c1CC21CCCCC1 [Example 212] | 6.20 |  | 43 | 6.32 | 6.15 |  |  |
| CNCC1OC(CC(C)C)Cc2c1ccc(O)c2O (stereo not drawn) [Example 219] | 5.40 | 0.09 µmol/kg |  |  | 5.80 |  |  |
| CNCC1OC2(CCCCCCCC2)Cc2c1ccc(O)c2O (stereo not drawn) [Example 224] | 6.64 |  | 64 | 6.62 | 5.64 |  |  |
| NCC1=CC2(CCCCCCCC2)Cc2c1ccc(O)c2O [Example 232] | 5.42 |  | 49 | 5.77 | < 5.00 |  |  |
| NCC1=CC2(CCCCCCCCC2)Cc2c1ccc(O)c2O [Example 234] | 5.41 |  | 53 | 5.57 | < 5.00 |  |  |
| NCC1CC2(CCCCCCCC2)Cc2c1ccc(O)c2O (stereo not drawn) [Example 236] | 5.36 |  | 36 | 6.15 | < 5.00 |  |  |
| NCC1CC2(CCCCCCCCC2)Cc2c1ccc(O)c2O (stereo not drawn) [Example 237] | 5.19 |  | 34 | 5.72 | < 5.00 |  |  |
| CCCCC1Cc2c(ccc(O)c2O)C2=C1CCNC2 (stereo not drawn) [Example 243] | 7.15 |  | 83 | 6.02 | 5.52 |  |  |
| CN1CCC2=C(C1)c1ccc(O)c(O)c1CC2C(C)(C)C (stereo not drawn) [Example 244] | 6.62 | > 3 µmol/kg |  |  | 5.92 |  |  |
| CN1CCC2=C(C1)c1ccc(O)c(O)c1CC21CCCCCCC1 [Example 250] | 6.82 | 0.51 µmol/kg |  |  | 5.80 |  |  |
| CCN1CCC2=C(C1)c1ccc(O)c(O)c1CC21CCCCCC1 [Example 251] | 6.28 |  | 41 | 6.33 | 5.92 |  |  |
